Values after ≈ are worked out from the molar mass of the structure shown. Structures can show the parent of a compound that is named as a salt.

Series [1] deals with MCF7. Description: Cytotoxicity against human MCF7 cells assessed as reduction in cell viability after 48 hrs by MTT assay. In kind it is functional, cell-based. Conditions: MCF7, 48 h.
Series [2] concerns MCF7. Description: Anticancer activity against human MCF7 cells after 48 hrs by MTT assay. In kind it is functional, cell-based. Particulars: MCF7, 48 h. A general note: Tetrazolium dyes change colour on reduction, which living cells bring about.
Series [3] relates to HepG2. Description: Anticancer activity against human HepG2 cells after 48 hrs by MTT assay. In kind it is functional, cell-based. Conditions: HepG2, 48 h.
A further series deals with A549. Description: Anticancer activity against human A549 cells after 48 hrs by MTT assay. In kind it is functional, cell-based. Conditions: A549, 48 h.
Another series deals with HT-29. Description: Anticancer activity against human HT-29 cells after 48 hrs by MTT assay. In kind it is functional, cell-based. Particulars: HT-29, 48 h.
Series [4] deals with U2OS. Description: Cytotoxicity against human U2OS cells assessed as reduction in cell viability at 20 uM by CellTiter 96 non-radioactive cell proliferation assay relative to control. In kind it is functional.
The subject of series [5] is U2OS. Description: Cytotoxicity against human U2OS cells assessed as reduction in cell viability by CellTiter 96 non-radioactive cell proliferation assay. In kind it is functional, cell-based.
Series [6] is described as follows: Half life in human liver microsome. In kind it is ADME. Particulars: liver microsomes. On the technique in general: Liver microsomes are a subcellular fraction often used to study metabolism.
The test system of another series is HeLa. Description: Cytotoxicity against human HeLa cells assessed as reduction in cell viability after 48 hrs by MTT assay. In kind it is functional, cell-based.
The subject of a further series is HOP-62. Description: Growth inhibition of human HOP62 cells after 48 hrs by MTT assay. In kind it is functional. Conditions: HOP-62, 48 h.
In the next series the test system is HUVEC. Description: Cytotoxicity against HUVEC assessed as reduction in cell viability. In kind it is cell-based. Conditions: Homo sapiens.
For series [7], the system named is MCF7. Description: Growth inhibition of human MCF7 cells after 48 hrs by MTT assay. In kind it is functional. Particulars: MCF7, 48 h.
The test system of series [8] is HepG2. Description: Anticancer activity against human HepG2 cells after 48 hrs by SRB assay. Conditions: HepG2, 48 h. A general note: The SRB assay estimates cell density from bound dye.
Series [9] concerns CCRF-CEM. Description: Cytotoxicity against human CCRF-CEM cells assessed as reduction in cell viability at 10 uM after 48 hrs by MTT assay relative to control. In kind it is functional. Conditions: values are per cent of control.
For series [10], the system named is CCRF-CEM. Description: Cytotoxicity against human CCRF-CEM cells assessed as reduction in cell viability at 25 uM after 24 hrs by MTT assay relative to control. In kind it is functional. Particulars: values are per cent of control.
Series [11] concerns CCRF-CEM. Description: Cytotoxicity against human CCRF-CEM cells assessed as reduction in cell viability at 50 uM after 24 hrs by MTT assay relative to control. In kind it is functional. Conditions: values are per cent of control.
The subject of series [12] is CCRF-CEM. Description: Cytotoxicity against human CCRF-CEM cells assessed as reduction in cell viability at 10 uM after 24 hrs by MTT assay relative to control. In kind it is functional. Conditions: values are per cent of control.
The test system of series [13] is CCRF-CEM. Description: Cytotoxicity against human CCRF-CEM cells assessed as reduction in cell viability at 25 uM after 48 hrs by MTT assay relative to control. In kind it is functional. Conditions: values are per cent of control.
Series [14] relates to CCRF-CEM. Description: Cytotoxicity against human CCRF-CEM cells assessed as reduction in cell viability at 50 uM after 48 hrs by MTT assay relative to control. In kind it is functional. Particulars: values are per cent of control.

In the case of `CCOC(=O)Cn1nnnc1/C(=C/c1ccc(F)cc1)NC(=O)c1ccccc1`, in the series on MCF7 [1], the IC50 turned out to be 47.9 µM.
For `CNC(=O)c1cc(Oc2ccc(NC(=O)Nc3ccc(Cl)c(C(F)(F)F)c3)cc2)ccn1` [SORAFENIB], the IC50 with MCF7 [2] amounted to 10.9 µM; in the series on HepG2 [3] it was 9.64 µM; with A549, 11.2 µM; in the series on HT-29, 10.1 µM.
For `CC(C)(C)n1nnc([C@H](CCCNC(=N)CCl)NC(=O)c2ccc(-c3ccccc3)cc2)n1`, the Activity in the series on U2OS [4] came to 0%. Moreover, the 50% effective concentration (EC50) in the series on U2OS [5] was 10 µM.
On to `CCOC(=O)Cn1nnnc1/C(=C/c1ccc(Cl)cc1)NC(=O)c1ccccc1`, for which the concentration for half-maximal inhibition (IC50) in the series on MCF7 [1] was found to be 40.2 µM.
`O=C(NC(=O)Nc1ccc(Oc2ccnc(-n3cnnn3)c2)c(F)c1)Nc1cccc(F)c1`: the concentration for half-maximal inhibition (IC50) was 7.76 µM in the series with MCF7 [2], 0.55 µM in the series on HepG2 [3], 6.25 µM in the series on A549 and 20.6 µM with HT-29. The half-life in series [6] was found to be 137 min.
As to `CC(C)(C)n1nnc([C@H](CCCNC(=N)CBr)NC(=O)c2ccc(-c3ccccc3)cc2)n1`, in the series with U2OS [4], the Activity is given as 50%. Also, the EC50 in the series with U2OS [5] was found to be 45 µM.
Regarding `N[C@@H](Cc1ccc(N(CCCl)CCCl)cc1)C(=O)O`, the values for the IC50 in the series on HeLa and in the series with MCF7 [1] were 88.9 µM and 61 µM, respectively.
`CCOC(=O)Cn1nnnc1/C(=C/c1ccc(OC)cc1)NC(=O)c1ccccc1`: the concentration for half-maximal inhibition (IC50) with MCF7 [1] amounted to 44.6 µM.
In the series on HOP-62, `COc1cc(-c2nnnn2-c2ccc(-c3nc4ccccc4o3)cc2)cc(OC)c1OC` returned a 50% growth inhibitory concentration (GI50) of 1670 nM.
Turning to `CCC(C)n1ncn(-c2ccc(N3CCN(c4ccc(OC[C@@H]5CO[C@@](Cn6ncnn6)(c6ccc(Cl)cc6Cl)O5)cc4)CC3)cc2)c1=O` (some centres undefined), in the series on HUVEC, the IC50 stood at 124 nM.
For the molecule `COc1cccc2c1C(=O)c1c(O)c3c(c(O)c1C2=O)C[C@@](O)(C(=O)CO)C[C@@H]3O[C@H]1C[C@H](N)[C@H](O)[C@H](C)O1` [DOXORUBICIN HYDROCHLORIDE], the concentration for 50% growth inhibition (GI50) in the series with HOP-62 stood at 140 nM; in the series on MCF7 [7] it was 170 µM.
Regarding `COc1cccc2c1C(=O)c1c(O)c3c(c(O)c1C2=O)C[C@@](O)(C(=O)CO)C[C@@H]3O[C@H]1C[C@H](N)[C@H](O)[C@H](C)O1` [DOXORUBICIN], the half-inhibitory concentration (IC50) with HepG2 [8] amounted to 4000 µg/mL (≈ 7.36 mM).
Turning to `CCC(C)n1ncn(-c2ccc(N3CCN(c4ccc(OC[C@@H]5CO[C@@](Cn6nnnc6-c6ccccc6)(c6ccc(Cl)cc6Cl)O5)cc4)CC3)cc2)c1=O` (some centres undefined), the IC50 with HUVEC amounted to 119 nM.
As to `O=C(NC(=O)Nc1ccc(F)cc1F)Nc1ccc(Oc2ccnc(-n3cnnn3)c2)c(F)c1`, the IC50 in the series with MCF7 [2] was 9.88 µM; in the series on HepG2 [3], 5.72 µM; with A549, 10.6 µM; in the series with HT-29 it was 5.97 µM. This molecule also yielded a half-life in series [6] of 550 min.
`O=[N+]([O-])c1ccc(-c2nnnn2-c2ccc(-c3nc4ccccc4o3)cc2)cc1`: the 50% growth inhibitory concentration (GI50) in the series on HOP-62 was 1220 nM.
Regarding `O=[N+]([O-])c1cccc(-c2nnnn2-c2ccc(-c3nc4ccccc4o3)cc2)c1`, in the series with HOP-62, halving of growth (GI50) required 2900 nM.
Consider `Brc1ccc2nc(/C=C/c3ccccc3)n3nnnc3c2c1`, for which the values for the IC50 with HeLa and with MCF7 [1] were 7.3 µM and 9.6 µM, respectively.
For the molecule `Fc1ccc(/C=C/c2nc3ccc(Br)cc3c3nnnn23)cc1`, the figures for the 50% inhibitory concentration (IC50) in the series on HeLa and in the series with MCF7 [1] were 22.4 µM and 21 µM, respectively.
For `Fc1ccc(-c2ccc3nc(/C=C/c4ccccc4)n4nnnc4c3c2)cc1` the same measures were greater than 200 µM and greater than 200 µM.
Turning to `Brc1c(Br)c(Br)c2c(ncn2CCCn2nnc(-c3ccccc3)n2)c1Br`, the values for the viability, % of control at 10 µM in the series with CCRF-CEM [9] and with CCRF-CEM [12] were 105% and 106%, respectively. In addition, the viability, % of control at 25 µM in the series on CCRF-CEM [10] was 73%; with CCRF-CEM [13] it was 64%. For the same molecule, the viability, % of control at 50 µM is 4% in the series with CCRF-CEM [11] and 0% in the series on CCRF-CEM [14].
As to `Clc1ccccc1-c1nnnn1CCCn1cnc2c(Br)c(Br)c(Br)c(Br)c21`, the viability, % of control at 10 µM with CCRF-CEM [9] stood at 51%; with CCRF-CEM [12] it was 65%. The viability, % of control at 25 µM in the series with CCRF-CEM [10] and in the series on CCRF-CEM [13] was 1% throughout. Further, the viability, % of control at 50 µM with CCRF-CEM [11] is 2%; in the series on CCRF-CEM [14] it was 0%.
For the molecule `CCC(C)n1ncn(-c2ccc(N3CCN(c4ccc(OC[C@@H]5CO[C@@](Cn6nnnc6C)(c6ccc(Cl)cc6Cl)O5)cc4)CC3)cc2)c1=O` (some centres undefined), the IC50 in the series on HUVEC came out at 101 nM.
For `Clc1ccccc1-c1nnn(CCCn2cnc3c(Br)c(Br)c(Br)c(Br)c32)n1`, the results for the viability, % of control at 10 µM with CCRF-CEM [9] and in the series with CCRF-CEM [12] were 104% and 102%, respectively. Moreover, the viability, % of control at 25 µM in the series on CCRF-CEM [10] amounted to 96%; with CCRF-CEM [13], 89%. Also, the viability, % of control at 50 µM in the series on CCRF-CEM [11] is 68%; with CCRF-CEM [14], 42%.
For `Fc1ccc(C#Cc2ccc3nc(/C=C/c4ccccc4)n4nnnc4c3c2)cc1`, the IC50 in the series on HeLa and with MCF7 [1] was greater than 200 µM each time.
Regarding `Brc1c(Br)c(Br)c2c(ncn2CCCn2nnnc2-c2ccccc2)c1Br`, the viability, % of control at 10 µM with CCRF-CEM [9] came to 57%; in the series with CCRF-CEM [12] it was 67%. Moreover, the viability, % of control at 25 µM is 4% with CCRF-CEM [10] and 0% with CCRF-CEM [13]. The values for the viability, % of control at 50 µM with CCRF-CEM [11] and in the series on CCRF-CEM [14] were 2% and 0%, respectively.

As usually defined, the IC50 is the concentration that gives 50% inhibition. The term EC50 denotes the concentration that produces a half-maximal response. Broadly, the half-life is the time in which the quantity being followed falls by half. Low values mean fast loss, high ones slow loss. For orientation: GI50 means the concentration that inhibits growth by half. Low values mean greater sensitivity of the cells, high ones lower sensitivity of the cells.
